What was measured:
[1] = test system: rat; conditions: Developmental neurotoxicity study; sprague dawley; Oral; Gavage/Intubation; dose end: 125 PND; group: cannot be grouped; systemic / in life observation / body weight / offspring (pup) weight
[2] = test system: rat; conditions: Chronic toxicity, fischer, Oral, Feed, dose end: 104 week, group: systemic
[3] = test system: mouse; conditions: Carcinogenicity; other; Oral; Water; dose end: 36 week; group: systemic; systemic / pathology microscopic / liver / adenoma + systemic / organ weight / liver / absolute + systemic / organ weight / liver / relative…
[4] = test system: rat; conditions: Peri- and post-natal toxicity study (Segment III), sprague dawley, Oral, Gavage/Intubation, dose end: 54 PND
[5] = test system: rat; conditions: Developmental neurotoxicity study; sprague dawley; Oral; Feed; dose end: 48 PND; group: cannot be grouped; developmental / developmental landmark / eye opening / eye opening + reproductive / offspring survival early / litter size / litter size + …
[6] = test system: rat; conditions: Multigenerational reproductive toxicity study, other, Oral, Gavage/Intubation, dose end: 2 generation
[7] = test system: rat; conditions: Multigenerational reproductive toxicity study, sprague dawley, Oral, Gavage/Intubation, dose end: 2 generation
[8] = test system: mouse; conditions: Carcinogenicity, b6c3f1, Oral, Feed, dose end: 2 year, group: systemic
[9] = test system: mouse; conditions: Subchronic oral toxicity in rodents, b6c3f1, Feed, dose end: 13 week, group: systemic
[10] = test system: rat; conditions: Combined chronic toxicity/carcinogenicity, fischer, Oral, Feed, dose end: 2 year, group: systemic
[11] = test system: rat; conditions: Subchronic oral toxicity in rodents, fischer, Feed, dose end: 13 week
[12] = test system: mouse; conditions: Carcinogenicity; b6c3f1; Oral; Feed; dose end: 78 week; group: systemic; systemic / in life observation / body weight / body weight
[13] = test system: mouse; conditions: Chronic toxicity, [Not Reported], Oral, Feed, dose end: 104 week, group: systemic
[14] = test system: rat; conditions: Chronic toxicity; fischer; Oral; Feed; dose end: 130 week; group: systemic; systemic / pathology microscopic / liver / hypertrophy + systemic / pathology microscopic / liver / necrosis
[15] = test system: rat; conditions: Developmental neurotoxicity study, sprague dawley, Oral, Gavage/Intubation, dose end: 80 PND, group: cannot be grouped
[16] = test system: rat; conditions: Carcinogenicity, fischer, Oral, Feed, dose end: 59 week, group: systemic
[17] = test system: mouse; conditions: Carcinogenicity; b6c3f1; Oral; Feed; dose end: 78 week; group: systemic; systemic / in life observation / body weight / body weight + systemic / pathology microscopic / liver / cytoplasmic alteration + systemic / …
[18] = test system: rat; conditions: Sub-acute repeat dose toxicity; fischer; Oral; Feed; dose end: 4 week; group: systemic; systemic / in life observation / body weight / body weight gain
[19] = test system: rat; conditions: Subchronic inhalation toxicity, fischer, Whole-Body, dose end: 14 week, group: systemic
[20] = test system: rat; conditions: Prenatal developmental toxicity study, sprague dawley, Inhalation, Whole-Body, dose end: 15 GD, group: maternal
[21] = test system: rat; conditions: Acute inhalation toxicity, fischer, Whole-Body, dose end: 2 week, group: systemic
[22] = test system: rat; conditions: Prenatal developmental toxicity study, sprague dawley, Inhalation, Whole-Body, dose end: 15 GD, group: maternal; remark: listed apart in the source
[23] = systemic / organ weight / liver / relative to body weight + systemic / pathology gross / liver / discolored + systemic / pathology gross / …
[24] = group: developmental, developmental / developmental landmark / vaginal opening / vaginal opening + developmental / developmental landmark / preputial separation…
[25] = group: parental, systemic / in life observation / clinical signs / ataxia + systemic / in life observation / clinical signs / prostration + systemic / organ …
[26] = group: parental, systemic / organ weight / adrenal gland / absolute + systemic / organ weight / liver / absolute
[27] = group: offspring, developmental / offspring survival late / viability index / viability index + developmental / developmental landmark / anogenital distance (…
[28] = group: parental, systemic / clinical chemistry / thyroxine (t4) / thyroxine (t4), total + systemic / organ weight / kidney / absolute + systemic / organ …
[29] = group: parental, systemic / organ weight / liver / absolute + systemic / organ weight / liver / relative to body weight + systemic / organ weight / kidney / …
[30] = group: offspring, systemic / in life observation / body weight / offspring (pup) weight + systemic / organ weight / brain / absolute + developmental / …
[31] = group: parental, systemic / in life observation / body weight / body weight + systemic / in life observation / clinical signs / drooping eyelids (ptosis) + …
[32] = group: parental, systemic / in life observation / clinical signs / salivation + systemic / organ weight / kidney / relative to body weight + systemic / organ…
[33] = group: reproductive, reproductive / reproductive performance / gestational length / gestational length + reproductive / reproductive performance / implantations…
[34] = group: reproductive, reproductive / reproductive performance / implantations / implantations
[35] = systemic / in life observation / body weight / body weight
[36] = systemic / pathology microscopic / lung / bronchiolization
[37] = systemic / in life observation / body weight / body weight gain
[38] = systemic / organ weight / liver / relative to body weight
[39] = systemic / pathology microscopic / kidney / hyaline droplet + systemic / pathology microscopic / kidney / pigmentation
[40] = group: maternal, reproductive / reproductive performance / estrous cycle / abnormal
[41] = group: systemic, systemic / hematology / erythrocyte (rbc) count differential / erythrocyte (rbc) + systemic / hematology / hematocrit (hct) / hematocrit (…
[42] = group: systemic, systemic / pathology microscopic / kidney / nephropathy + systemic / pathology microscopic / spleen / congestion + systemic / pathology …
[43] = systemic / in life observation / food consumption / food consumption + systemic / organ weight / liver / absolute + systemic / organ weight…
[44] = systemic / in life observation / body weight / body weight + reproductive / reproductive performance / mating / mating
[45] = systemic / in life observation / body weight / body weight + reproductive / reproductive performance / mating / mating + systemic / clinical…
[46] = systemic / pathology microscopic / nose / hyperplasia + systemic / pathology microscopic / nose / hypertrophy + systemic / pathology …
[47] = systemic / in life observation / body weight / body weight + systemic / in life observation / body weight / body weight gain + systemic / in…
[48] = systemic / in life observation / body weight / body weight + systemic / in life observation / clinical signs / body temperature + systemic…

CCC1(c2ccccc2)C(=O)NC(=O)NC1=O [Phenobarbital] was tested, and the LEL [1] was 40 mg/kg/day, the LOAEL [1] was > 80 mg/kg/day and the NEL [1] was < 40 mg/kg/day. For the same compound, the NOAEL [1] was ≥ 80 mg/kg/day, the LOAEL [2, 23] was > 19 mg/kg/day and the NEL [2, 23] was 1.1 mg/kg/day. The NOAEL [2, 23] was ≥ 19 mg/kg/day, the LEL ([2]; systemic / organ weight / liver / relative to body weight + systemic / pathology gross / liver / mass + systemic / pathology microscopic / …) was 4.6 mg/kg/day and the LEL [3] was 75 mg/kg/day. The LOAEL [3] was > 75 mg/kg/day, the NEL [3] was < 75 mg/kg/day and the NOAEL [3] was ≥ 75 mg/kg/day. For the same compound, the NEL ([4]; group: developmental, developmental / developmental landmark / vaginal opening / vaginal opening) was 50 mg/kg/day, the LEL [4, 24] was 100 mg/kg/day and the LOAEL [4, 24] was > 100 mg/kg/day. For the same compound, the NOAEL [4, 24] was ≥ 100 mg/kg/day, the LOAEL [4, 25] was > 100 mg/kg/day and the NOAEL [4, 25] was ≥ 100 mg/kg/day. For the same compound, the LEL [4, 26] was 25 mg/kg/day, the NEL [4, 26] was < 25 mg/kg/day and the LEL [5] was 37.5 mg/kg/day. For the same compound, the LOAEL [5] was > 37.5 mg/kg/day, the NEL [5] was < 37.5 mg/kg/day and the NOAEL [5] was ≥ 37.5 mg/kg/day.

Cc1ccc([N+](=O)[O-])cc1 [4-Nitrotoluene] showed an LOAEL [6, 27] of 160 mg/kg/day, an NEL [6, 27] of 40 mg/kg/day and an NOAEL ([6]; group: offspring, developmental / offspring survival late / viability index / viability index + systemic / organ weight / brain / absolute) of 80 mg/kg/day. The LEL ([6]; group: offspring, systemic / organ weight / brain / absolute) was 80 mg/kg/day, the LOAEL [6, 28] was > 160 mg/kg/day and the NOAEL [6, 28] was ≥ 160 mg/kg/day. The LEL [6, 29] was 40 mg/kg/day, the NEL [6, 29] was < 40 mg/kg/day and the NEL ([7]; group: offspring, systemic / in life observation / body weight / offspring (pup) weight + developmental / offspring survival late / viability index / …) was 40 mg/kg/day. The LEL ([7]; group: offspring, systemic / in life observation / body weight / offspring (pup) weight + systemic / organ weight / brain / absolute) was 80 mg/kg/day, the LOAEL [7, 30] was > 160 mg/kg/day and the NOAEL [7, 30] was ≥ 160 mg/kg/day. For the same compound, the LOAEL [7, 31] was > 160 mg/kg/day, the NOAEL [7, 31] was ≥ 160 mg/kg/day and the LEL [7, 32] was 40 mg/kg/day. The NEL [7, 32] was < 40 mg/kg/day, the LOAEL [7, 33] was > 160 mg/kg/day and the NOAEL [7, 33] was ≥ 160 mg/kg/day. For the same compound, the LEL [7, 34] was 40 mg/kg/day, the NEL [7, 34] was < 40 mg/kg/day and the LOAEL [8, 35] was 345 mg/kg/day. The NOAEL ([8]; systemic / in life observation / body weight / body weight + systemic / pathology microscopic / lung / adenoma/carcinoma combined + systemic…) was 170 mg/kg/day, the LEL [8, 36] was 155 mg/kg/day and the NEL [8, 36] was < 155 mg/kg/day. The LOAEL [9, 37] was 813 mg/kg/day, the NOAEL ([9]; systemic / in life observation / body weight / body weight gain + systemic / in life observation / food consumption / food consumption + …) was 439 mg/kg/day and the LEL [9, 38] was 131 mg/kg/day. The NEL [9, 38] was < 131 mg/kg/day, the LEL [10, 39] was 55 mg/kg/day and the NEL [10, 39] was < 55 mg/kg/day. It also gave an LOAEL ([10]; systemic / pathology microscopic / spleen / hematopoietic cell proliferation + systemic / pathology microscopic / spleen / pigmentation) of 110 mg/kg/day, an NOAEL ([10]; systemic / pathology microscopic / spleen / hematopoietic cell proliferation + systemic / pathology microscopic / spleen / pigmentation + …) of 55 mg/kg/day and an LEL [11, 40] of 680 mg/kg/day. For the same compound, the LOAEL [11, 40] was > 680 mg/kg/day, the NEL [11, 40] was 335 mg/kg/day and the NOAEL [11, 40] was ≥ 680 mg/kg/day. The LOAEL [11, 41] was 335 mg/kg/day, the NOAEL [11, 41] was 164 mg/kg/day and the LEL [11, 42] was 42 mg/kg/day. For the same compound, the NEL [11, 42] was < 42 mg/kg/day.

N[C@@H](Cc1c[nH]c2ccccc12)C(=O)O [l-Tryptophan] was tested, and the LEL [12] was 3750 mg/kg/day, the LOAEL [12] was 3750 mg/kg/day and the NEL [12] was < 3750 mg/kg/day. The NOAEL [12] was < 3750 mg/kg/day.

For ClC1=C(Cl)C2(Cl)C3C(Cl)C(Cl)CC3C1(Cl)C2(Cl)Cl (stereo not drawn) [Chlordane, technical grade], the LEL [13, 43] was 0.15 mg/kg/day, the NEL [13, 43] was < 0.15 mg/kg/day and the NOAEL ([13]; systemic / pathology microscopic / liver / degeneration + systemic / in life observation / food consumption / food consumption + systemic / …) was 0.15 mg/kg/day. The LOAEL ([13]; systemic / pathology microscopic / liver / degeneration + systemic / pathology microscopic / liver / necrosis) was 0.75 mg/kg/day, the LEL [14] was 0.045 mg/kg/day and the LOAEL [14] was 0.045 mg/kg/day. The NEL [14] was < 0.045 mg/kg/day, the NOAEL [14] was < 0.045 mg/kg/day and the LEL [15, 44] was 0.1 mg/kg/day. The NEL [15, 44] was < 0.1 mg/kg/day, the LOAEL [15, 45] was > 5 mg/kg/day and the NOAEL [15, 45] was ≥ 5 mg/kg/day.

In the case of CN(C)c1ccc(Cc2ccc(N(C)C)cc2)cc1 [4,4'-Methylenebis(N,N-dimethylaniline)], the LEL [16, 35] is reported as 18.8 mg/kg/day, the LOAEL [16, 35] is reported as 37.5 mg/kg/day and the NEL [16, 35] is reported as < 18.8 mg/kg/day. It also gave an NOAEL ([16]; systemic / in life observation / body weight / body weight + systemic / pathology microscopic / thyroid gland / adenoma + systemic / …) of 18.8 mg/kg/day, an LEL [17] of 188 mg/kg/day and an LOAEL [17] of 188 mg/kg/day. For the same compound, the NEL [17] was < 188 mg/kg/day, the NOAEL [17] was < 188 mg/kg/day and the LEL [18] was 7.25 mg/kg/day. For the same compound, the LOAEL [18] was 34 mg/kg/day, the NEL [18] was < 7.25 mg/kg/day and the NOAEL [18] was 15.8 mg/kg/day.

For CCN(CC)CCO [N,N-Diethylethanolamine], the NEL [19, 46] was 10 ppm, the NOAEL [19, 46] was 10 ppm and the LOAEL ([19]; systemic / pathology microscopic / nose / hyperplasia + systemic / pathology microscopic / nose / infiltration cellular) was 25 ppm. For the same compound, the LEL ([19]; systemic / pathology microscopic / nose / hyperplasia + systemic / pathology microscopic / nose / infiltration cellular + systemic / …) was 25 ppm, the LOAEL [20, 47] was > 100 ppm and the NEL [20, 47] was 33 ppm. For the same compound, the NOAEL [20, 47] was ≥ 100 ppm, the LEL ([20]; systemic / in life observation / body weight / body weight gain + systemic / in life observation / food consumption / food consumption) was 66 ppm and the LOAEL [21, 48] was > 300 ppm. The NEL [21, 48] was 10 ppm, the NOAEL [21, 48] was ≥ 300 ppm and the LEL ([21]; systemic / pathology microscopic / nose / infiltration cellular + systemic / pathology microscopic / nose / metaplasia) was 55 ppm. For the same compound, the LOAEL [22, 47] was > 200 ppm, the NEL [22, 47] was 10 ppm and the NOAEL [22, 47] was ≥ 200 ppm. The LEL [22, 37] was 50 ppm.

Reference: EPA's ToxRefDB 2
